# Data from PubChem BioAssay AID1963977 (Molecular Pharmacology Branch, DTP, NCI, 2024).
# pIC50: −log10 of the molar value.
# System: 624824-186-R-J3-PDC multicell spheroids, viability
# Experiment: Anticancer human tumor 624824-186-R-J3-PDC patient-derived colon adenocarcinoma cell line growth inhibition [PI3K]
# Conditions: for pIC50: curve of first compound; for viability, T/C: stronger effect = lower value
# Text: Combinatorial screen of targeted agents with the PI3K inhibitors inavolisib, alpelisib, duvelisib, and copanlisib in multi-cell type tumor spheroids
# A high-throughput screen of multi-cell type tumor spheroids was designed to identify active combinations of targeted small molecules and PI3K pathway inhibitors. Complex spheroids include a stromal component modeled by human endothelial cells (HUVEC) and fibroblasts modeled by human mesenchymal stem cells (MSCs). The concentration ranges selected for each drug and investigational agent were based upon clinically achievable concentrations if the clinical Cmax of the agent was known.
# Compounds. The drugs and investigational agents: inavolisib (NSC800729), alpelisib (NSC765974), duvelisib (NSC772469), copanlisib (NSC816437), ipatasertib (NSC767898), afuresertib (NSC778305), talazoparib (NSC767125), sapanisertib (NSC764658), selumetinib (NSC741078), tovorafenib (DAY101, NSC766906), vemurafenib (NSC761431), ravoxertinib (NSC781343), sotorasib (NSC818433), MRTX1133 (NSC 836407), abemaciclib (NSC 768073), palbociclib (NSC758247), venetoclax (NSC 766270), SY5609 (NSC837396), enzalutamide (NSC755605), and darolutamide (NSC825331), were obtained from the National Cancer Institute (NCI) Developmental Therapeutics Program Chemical Repository. The FDA-approved anticancer drug set is available from the NCI Developmental Therapeutics Program. […] The stock solutions were prepared in dimethyl sulfoxide (DMSO, Sigma-Aldrich, St. Louis, MO, cat. D2650) at 800-fold the tested concentration and stored at -70 degrees C prior to their use. All drugs and investigational agents were tested over a range starting from a high concentration at or near the clinical Cmax and decreasing in half-log increments. If the clinical Cmax for an agent had not been determined, the highest concentration tested was 10 microM.
# Cell Culture. All cells were maintained in an incubator at 37 degrees C and 5% CO2 with 95% humidity. The PDC lines were cultured according to standard operating procedures established by the NCI PDMR (https://pdmr.cancer.gov/sops/default.htm). All PDCs were thawed and cultured in Matrigel-coated flasks prepared with a working solution of 1X Ham's F-12 nutrient mix, without supplementation (Invitrogen, Waltham, MA, cat. 11765054), 100 U/mL penicillin-streptomycin (Invitrogen, cat. 15140122), and 2.5% Matrigel (Corning Inc., Corning, NY, cat. 354248) for the first three passages. The 354836-022-R-J1-PDC, 475296-252-R-J1-PDC, and 997726-040-R-J2-PDC lines were cultured in 6A media, which includes advanced DMEM/F-12 (Thermo Fisher Scientific, cat. 12634028), 10 mM HEPES (Thermo Fisher Scientific, cat. 15630080), 1X GlutaMAX supplement (Thermo Fisher Scientific, cat. 35050061), 0.1 mg/mL primocin (InvivoGen, San Diego, CA, cat. ant-pm-2), 10% defined fetal bovine serum, heat inactivated (HyClone Laboratories Inc., Logan, UT, cat. SH30070.03HI), 50% L-WRN conditioned media (ATCC, cat. CRL-3276), 1.25 mM N-Acetyl-L-cysteine (Sigma-Aldrich, cat. A9165), 10 mM nicotinamide (Sigma-Aldrich, cat. N0636), 1X B-27 supplement (Thermo Fisher Scientific, cat. 17504044), 1X N-2 supplement (Thermo Fisher Scientific, cat. 17502048), and 10 microM Y-27632 dihydrochloride (Tocris Bioscience, Bristol, United Kingdom, cat. 1254). The 624824-186-R-J2-PDC line was cultured in 6C/Colon 1B media, which includes all 6A media components plus 50 ng/mL human EGF recombinant protein (Thermo Fisher Scientific, cat. PHG0311). […]
# 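Also: spheroids exposed to agents for seven days before luminescence read.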
# 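For viability, T/C in this document: luminescent signal used as a stand-in for spheroid viability; percent viability relative to DMSO vehicle control wells taken as 100%.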
compound,measurement,setting,value
Cn1nccc1Nc1nccc(-c2ccn(C(CO)c3ccc(Cl)c(F)c3)c(=O)c2)n1 (configuration not stated) + CC(Nc1ccc2c(c1)OCCn1cc(N3C(=O)OCC3C(F)F)nc1-2)C(N)=O,pIC50,second compound 0.00316 µM,5.08
same,pIC50,second compound 0.01 µM,5.39
same,pIC50,second compound 0.0316 µM,5.59
same,pIC50,second compound 0.1 µM,5.90
same,pIC50,second compound 0.316 µM,6.20
same,pIC50,second compound 1 µM,6.47
same,"viability, T/C","second compound 0.00316 µM, first compound 0.0316 µM",104%
same,"viability, T/C","second compound 0.00316 µM, first compound 0.1 µM",91.1%
same,"viability, T/C","second compound 0.00316 µM, first compound 0.316 µM",85%
same,"viability, T/C","second compound 0.00316 µM, first compound 1 µM",75.9%
same,"viability, T/C","second compound 0.00316 µM, first compound 3.16 µM",58.8%
same,"viability, T/C","second compound 0.00316 µM, first compound 10 µM",48.1%
same,"viability, T/C","second compound 0.01 µM, first compound 0.0316 µM",93.9%
same,"viability, T/C","second compound 0.01 µM, first compound 0.1 µM",93%
same,"viability, T/C","second compound 0.01 µM, first compound 0.316 µM",90%
same,"viability, T/C","second compound 0.01 µM, first compound 1 µM",65.4%
same,"viability, T/C","second compound 0.01 µM, first compound 3.16 µM",54.9%
same,"viability, T/C","second compound 0.01 µM, first compound 10 µM",43.9%
same,"viability, T/C","second compound 0.0316 µM, first compound 0.0316 µM",97.5%
same,"viability, T/C","second compound 0.0316 µM, first compound 0.1 µM",107%
same,"viability, T/C","second compound 0.0316 µM, first compound 0.316 µM",80.7%
same,"viability, T/C","second compound 0.0316 µM, first compound 1 µM",68.2%
same,"viability, T/C","second compound 0.0316 µM, first compound 3.16 µM",46.2%
same,"viability, T/C","second compound 0.0316 µM, first compound 10 µM",37.2%
same,"viability, T/C","second compound 0.1 µM, first compound 0.0316 µM",102%
same,"viability, T/C","second compound 0.1 µM, first compound 0.1 µM",95%
same,"viability, T/C","second compound 0.1 µM, first compound 0.316 µM",80.6%
same,"viability, T/C","second compound 0.1 µM, first compound 1 µM",52.2%
same,"viability, T/C","second compound 0.1 µM, first compound 3.16 µM",36.4%
same,"viability, T/C","second compound 0.1 µM, first compound 10 µM",24.8%
same,"viability, T/C","second compound 0.316 µM, first compound 0.0316 µM",105%
same,"viability, T/C","second compound 0.316 µM, first compound 0.1 µM",95%
same,"viability, T/C","second compound 0.316 µM, first compound 0.316 µM",76.6%
same,"viability, T/C","second compound 0.316 µM, first compound 1 µM",31.7%
same,"viability, T/C","second compound 0.316 µM, first compound 3.16 µM",20.2%
same,"viability, T/C","second compound 0.316 µM, first compound 10 µM",17.4%
same,"viability, T/C","second compound 1 µM, first compound 0.0316 µM",84.1%
same,"viability, T/C","second compound 1 µM, first compound 0.1 µM",81.1%
same,"viability, T/C","second compound 1 µM, first compound 0.316 µM",51.9%
same,"viability, T/C","second compound 1 µM, first compound 1 µM",20.5%
same,"viability, T/C","second compound 1 µM, first compound 3.16 µM",15.1%
same,"viability, T/C","second compound 1 µM, first compound 10 µM",15.3%
